This test has as its system B6C3F1 mice, Lewis lung carcinoma iv, survival T/C. The test can be described thus: NCI In Vivo Anticancer Drug Screen. Data for tumor model Lewis Lung Carcinoma (intravenous) in B6C3F1 mice. Conditions: endpoint: median survival time, higher = longer survival. How it is done:
The antitumor activity of compounds was measured in mice bearing transplantable tumors. Survival or tumor size were measured and the results are expressed as the measurement made in the treated group (T) divided by the measurement made in the vehicle treated control group (C). The tumor model used in this assay is Lewis Lung Carcinoma (intravenous) in B6C3F1 mice

Where [1] appears, read: dose: 12.5 mg/kg/injection, schedule: Q01DX009 (ip), vehicle: saline with Tween-80.
[2] abbreviates: dose: 25.0 mg/kg/injection, schedule: Q01DX009 (ip), vehicle: saline with Tween-80.
Setting [3] is: dose: 50.0 mg/kg/injection, schedule: Q01DX009 (ip), vehicle: saline with Tween-80.
Where [4] appears, read: dose: 3.12 mg/kg/injection, schedule: Q01DX009 (ip), vehicle: Klucel (hydroxypropylcellulose) (HPC).
The mark [5] stands for this setting: dose: 6.25 mg/kg/injection, schedule: Q01DX009 (ip), vehicle: Klucel (hydroxypropylcellulose) (HPC).
The mark [6] stands for this setting: dose: 25.0 mg/kg/injection, schedule: Q01DX009 (ip), vehicle: Klucel (hydroxypropylcellulose) (HPC).
Where [7] appears, read: dose: 50.0 mg/kg/injection, schedule: Q01DX009 (ip), vehicle: Klucel (hydroxypropylcellulose) (HPC).
Setting [8] is: dose: 100.0 mg/kg/injection, schedule: Q01DX009 (ip), vehicle: Klucel (hydroxypropylcellulose) (HPC).
Where [9] appears, read: dose: 12.5 mg/kg/injection, schedule: Q01DX009 (ip), vehicle: Klucel (hydroxypropylcellulose) (HPC).
Setting [10] is: dose: 200.0 mg/kg/injection, schedule: Q01DX009 (ip), vehicle: Klucel (hydroxypropylcellulose) (HPC).
[11] abbreviates: dose: 12.5 mg/kg/injection, schedule: Q01DX009 (ip), vehicle: saline.
Setting [12] is: dose: 25.0 mg/kg/injection, schedule: Q01DX009 (ip), vehicle: saline.
Setting [13] is: dose: 50.0 mg/kg/injection, schedule: Q01DX009 (ip), vehicle: saline.
Where [14] appears, read: dose: 100.0 mg/kg/injection, schedule: Q01DX009 (ip), vehicle: saline.
Where [15] appears, read: dose: 200.0 mg/kg/injection, schedule: Q01DX009 (ip), vehicle: saline.

The structures appear in SMILES notation. “And” between values parts separate entries of the source, which are not always exact repeats. Identical values can stand only once. Toxic doses and inconclusive results are not listed.

`CCCCCC1c2cc(O)ccc2OC1N1CCOCC1` (stereo not given): the T/C is 96 % of control (dose: 6.0 mg/kg/injection, schedule: Q01DX009 (ip), vehicle: saline with Tween-80); 104 % of control (dose: 12.0 mg/kg/injection, schedule: Q01DX009 (ip), vehicle: saline with Tween-80); 97 % of control under setting [1]; 91 % of control under setting [2]; 103 % of control and 104 % of control under setting [3]; 94 % of control and 96 % of control (dose: 100.0 mg/kg/injection, schedule: Q01DX009 (ip), vehicle: saline with Tween-80). Besides, the T/C (dose: 200.0 mg/kg/injection, schedule: Q01DX009 (ip), vehicle: saline with Tween-80) is 90 % of control and 99 % of control.

Turning to `C=C(C)[C@@H]1CCc2c(O)c(O)c(=O)cc(C)c2C1`, the T/C was 90 % of control under setting [4]; 92 % of control under setting [5]; 102 % of control under setting [6]; 97 % of control under setting [7]; 90 % of control under setting [8].

As to `Cc1cc(N2C(=O)CCSC2=S)ccc1Cl`, the T/C under setting [9] was 120 % of control; the T/C under setting [6] is 97 % of control; the T/C under setting [7] is 102 % of control; the T/C under setting [8] was 111 % of control; the T/C under setting [10] is 124 % of control.

For the compound `Cc1cc(N)c2ccccc2[n+]1CCCCCCCCCC[n+]1c(C)cc(N)c2ccccc21`, the T/C reads like this: (dose: 0.12 mg/kg/injection, schedule: Q01DX026 (ip), vehicle: dextrose) 93 % of control; (dose: 0.25 mg/kg/injection, schedule: Q01DX026 (ip), vehicle: dextrose) 104 % of control; (dose: 0.5 mg/kg/injection, schedule: Q01DX026 (ip), vehicle: dextrose) 96 % of control; (dose: 0.75 mg/kg/injection, schedule: Q01DX009 (ip), vehicle: dextrose) 101 % of control; (dose: 1.0 mg/kg/injection, schedule: Q01DX026 (ip), vehicle: dextrose) 99 % of control; (dose: 1.5 mg/kg/injection, schedule: Q01DX009 (ip), vehicle: dextrose) 95 % of control. The T/C is 103 % of control (dose: 2.0 mg/kg/injection, schedule: Q01DX026 (ip), vehicle: dextrose) and 104 % of control (dose: 3.0 mg/kg/injection, schedule: Q01DX009 (ip), vehicle: dextrose).

Turning to `CN(C)[C@@H]1C(=O)C(C(N)=O)=C(O)[C@@]2(O)C(=O)C3=C(O)c4c(O)ccc(Cl)c4[C@@](C)(O)[C@H]3C[C@@H]12`, the T/C was 100 % of control under setting [11]; 100 % of control under setting [12]; 109 % of control under setting [13]; 113 % of control under setting [14]; 101 % of control under setting [15].

For `COc1cccc2c1C(=O)c1c(O)c3c(c(O)c1C2=O)C[C@@](O)(C(C)=O)C[C@@H]3OC1CC(N)C(O)C(C)O1` (stereo not given in full), the T/C runs as follows: (dose: 0.25 mg/kg/injection, schedule: Q01DX009 (ip), vehicle: saline) 86 % of control; (dose: 0.5 mg/kg/injection, schedule: Q01DX009 (ip), vehicle: saline) 123 % of control; (dose: 1.0 mg/kg/injection, schedule: Q01DX009 (ip), vehicle: saline) 112 % of control.

As to `CNc1cccnc1/C=N/NC(N)=S`, the T/C under setting [1] was 104 % of control, the T/C under setting [2] is 122 % of control and the T/C under setting [3] is 90 % of control.

Consider `CCCC(=O)OCC1OC(n2cnc3c(=S)nc[nH]c32)C(OC(=O)CCC)C1OC(=O)CCC` (stereo not given), for which the T/C is 99 % of control under setting [1], 99 % of control under setting [2] and 94 % of control under setting [3].

`COc1cccc2c1C(=O)c1c(O)c3c(c(O)c1C2=O)C[C@H](O)C[C@@H]3OC1CC(N)C(O)C(C)O1` (stereo not given in full): the T/C was 100 % of control (dose: 0.75 mg/kg/injection, schedule: Q01DX009 (ip), vehicle: water); 104 % of control (dose: 1.5 mg/kg/injection, schedule: Q01DX009 (ip), vehicle: water); 100 % of control (dose: 3.0 mg/kg/injection, schedule: Q01DX009 (ip), vehicle: water); 104 % of control (dose: 6.0 mg/kg/injection, schedule: Q01DX009 (ip), vehicle: water).

Regarding `CC1=NNC(=O)C1CCO` (stereo not given), the T/C reads like this: under setting [5], 104 % of control; under setting [9], 96 % of control; under setting [6], 108 % of control; under setting [7], 92 % of control and 99 % of control; under setting [10], 98 % of control and 108 % of control; (dose: 400.0 mg/kg/injection, schedule: Q01DX009 (ip), vehicle: Klucel (hydroxypropylcellulose) (HPC)) 112 % of control.

On to `O=C(O)CC(NC(=O)CP(=O)(O)O)C(=O)O` (stereo not given), for which the T/C was 99 % of control under setting [11], 103 % of control under setting [12], 158 % of control under setting [14] and 187 % of control under setting [15].

As for `COc1ccc(CC2C(=O)NC(C)C(=O)N(C)C3Cc4ccc(cc4)Oc4cc(ccc4O)CC(C(=O)NC(C)C(=O)NC(C)C(=O)N2C)N(C)C3=O)cc1` (stereo not given), the T/C reads like this: (dose: 0.25 mg/kg/injection, schedule: Q01DX009 (ip), vehicle: saline with Tween-80) 110 % of control; (dose: 0.5 mg/kg/injection, schedule: Q01DX009 (ip), vehicle: saline with Tween-80) 107 % of control; (dose: 1.0 mg/kg/injection, schedule: Q01DX009 (ip), vehicle: saline with Tween-80) 106 % of control; (dose: 2.0 mg/kg/injection, schedule: Q01DX009 (ip), vehicle: saline with Tween-80) 106 % of control.

On to `NNC(=S)N/N=C/c1ccccn1`, for which the T/C is 102 % of control (dose: 1.56 mg/kg/injection, schedule: Q01DX009 (ip), vehicle: suspension in saline); 86 % of control (dose: 3.12 mg/kg/injection, schedule: Q01DX009 (ip), vehicle: suspension in saline); 115 % of control (dose: 6.25 mg/kg/injection, schedule: Q01DX009 (ip), vehicle: saline); 98 % of control (dose: 6.25 mg/kg/injection, schedule: Q01DX009 (ip), vehicle: suspension in saline); 115 % of control under setting [11]; 108 % of control (dose: 12.5 mg/kg/injection, schedule: Q01DX009 (ip), vehicle: suspension in saline). Besides, the T/C is 154 % of control under setting [12] and 101 % of control (dose: 25.0 mg/kg/injection, schedule: Q01DX009 (ip), vehicle: suspension in saline).

Regarding `COC12C(COC(=O)NCCO)C3=C(C(=O)C(C)=C(N)C3=O)N1CC1NC12` (stereo not given), the T/C is 111 % of control under setting [4] and 102 % of control under setting [5].

With `C[C@]12C=CC(=O)C=C1CC[C@@H]1[C@@H]2C(=O)C[C@@]2(C)[C@H]1CC[C@]2(O)C(=O)CO`, the T/C runs as follows: (dose: 12.5 mg/kg/injection, schedule: Q01DX009 (ip), vehicle: water) 100 % of control; (dose: 25.0 mg/kg/injection, schedule: Q01DX009 (ip), vehicle: water) 100 % of control; (dose: 50.0 mg/kg/injection, schedule: Q01DX009 (ip), vehicle: water) 96 % of control; (dose: 100.0 mg/kg/injection, schedule: Q01DX009 (ip), vehicle: water) 98 % of control; (dose: 200.0 mg/kg/injection, schedule: Q01DX009 (ip), vehicle: water) 94 % of control.

Regarding `C=C(OP(=O)(OC)OC)Sc1ccccc1C`, the T/C reads like this: (dose: 0.06 mg/kg/injection, schedule: Q01DX009 (ip), vehicle: Klucel (hydroxypropylcellulose) (HPC)) 105 % of control; (dose: 0.12 mg/kg/injection, schedule: Q01DX009 (ip), vehicle: Klucel (hydroxypropylcellulose) (HPC)) 104 % of control; (dose: 0.25 mg/kg/injection, schedule: Q01DX009 (ip), vehicle: Klucel (hydroxypropylcellulose) (HPC)) 110 % of control; (dose: 0.37 mg/kg/injection, schedule: Q01DX009 (ip), vehicle: Klucel (hydroxypropylcellulose) (HPC)) 100 % of control; (dose: 0.5 mg/kg/injection, schedule: Q01DX009 (ip), vehicle: Klucel (hydroxypropylcellulose) (HPC)) 89 % of control; (dose: 0.75 mg/kg/injection, schedule: Q01DX009 (ip), vehicle: Klucel (hydroxypropylcellulose) (HPC)) 91 % of control.

With `CCC1OC(OC)C=CC1=O` (stereo not given), the T/C by setting is: under setting [11], 97 % of control; under setting [13], 97 % of control.

The values above are taken from PubChem BioAssay AID276 (DTP/NCI, 2004).
